Data on four molecules can be found in ChEMBL document CHEMBL4373743, “Selective apoptosis-inducing activity of synthetic hydrocarbon-stapled SOS1 helix with d-amino acids in H358 cancer cells expressing KRASG12C” (Eur J Med Chem, 2020).

Activity calls are given as the source filed them. The rule behind the calls is not given here. Bridge positions count the residues as written; N and C are the ends. Square brackets hold non-standard residues; d marks the D form. Peptide text beside a SMILES is read from it. S5 = C=CCCC[C@](C)(N)C(=O)O

For experiment [1], the system named is GTPase KRas (Homo sapiens), P01116 [G12C]. Put plainly: Inhibition of mant-GDP bound N-terminal His6-tagged recombinant KRAS G12C mutant (unknown origin) by fluorescence based assay.
GTPase KRas (Homo sapiens), P01116 [G12C], sequence (P01116 whole entry G12C): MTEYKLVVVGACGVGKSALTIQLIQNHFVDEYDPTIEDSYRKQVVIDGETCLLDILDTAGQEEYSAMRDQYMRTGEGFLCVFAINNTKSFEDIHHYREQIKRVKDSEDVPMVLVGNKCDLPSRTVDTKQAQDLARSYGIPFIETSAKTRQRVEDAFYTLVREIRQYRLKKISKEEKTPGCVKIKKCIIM
The test system is the same in experiment [2]. As to the kind of experiment: Binding affinity to biotinylated N-terminal His6-tagged recombinant KRAS G12C mutant (unknown origin) assessed as dissociation constant by BLI method.
Experiment [3] has the same test system. Put plainly: Binding affinity to biotinylated N-terminal His6-tagged recombinant KRAS G12C mutant (unknown origin) assessed as association constant by BLI method.
In the next experiment the test system is A549. Put plainly: Antiproliferative activity against human A549 cells harboring KRAS G12S mutant at 0.37 to 10 uM incubated for 24 hrs by MTT assay. It is filed as functional, cell-based. (In general: Formazan colour is commonly taken as a measure of viable cells.)
The subject of another experiment is NCI-H358. As to the kind of experiment: Antiproliferative activity against human NCI-H358 cells harboring KRAS G12C mutant incubated for 24 hrs by MTT assay. It is filed as functional, cell-based.
A further experiment concerns the target GTPase KRas (Homo sapiens, UniProt P01116, G12C). As to the kind of experiment: Binding affinity to biotinylated N-terminal His6-tagged recombinant KRAS G12C mutant (unknown origin) by BLI method.

GTPase KRas, sequence (P01116 whole entry G12C): as above

Take `CC[C@H](C)[C@H](NC(=O)CNC(=O)[C@H](Cc1ccccc1)NC(=O)[C@H](Cc1ccccc1)NC(=O)[C@H](CCCNC(=N)N)NC(=O)[C@H](CCCNC(=N)N)NC(C)=O)C(=O)N[C@@]1(C)CCC/C=C\CCC[C@@](C)(C(=O)N[C@@H](CC(C)C)C(=O)N[C@@H](CCCCN)C(=O)N[C@H](C(=O)N[C@@H](CCC(=O)O)C(=O)N[C@@H](CCC(=O)O)C(=O)NCC(=O)N[C@@H](CC(N)=O)C(=O)O)[C@@H](C)O)NC(=O)[C@H](CC(N)=O)NC(=O)[C@H]([C@@H](C)O)NC(=O)[C@H](CC(C)C)NC1=O`: the inhibition result in experiment [1] is “Dose-dependent effect”. Moreover, in experiment [2], the Kdiss came to 1.17 ×10⁻¹ /s. The Ka in experiment [3] came to 2.44 ×10³ /M.s. Moreover, in the experiment with A549, the result was inactive. Also, the Activity entry in the experiment on NCI-H358 is “Dose-dependent effect”. For the same molecule, the Kd – broadly, a measure of binding affinity in units of concentration – on GTPase KRas was found to be 47.8 µM.
`CC[C@H](C)[C@H](NC(=O)CNC(=O)[C@H](Cc1ccccc1)NC(=O)[C@H](Cc1ccccc1)NC(=O)[C@H](CCCNC(=N)N)NC(=O)[C@H](CCCNC(=N)N)NC(C)=O)C(=O)N[C@@]1(C)CCC/C=C\CCC[C@@](C)(C(=O)N[C@@H](CC(C)C)C(=O)N[C@@H](CCCCN)C(=O)N[C@H](C(=O)N[C@@H](CCC(=O)O)C(=O)N[C@@H](CCC(=O)O)C(=O)NCC(=O)N[C@@H](CC(N)=O)C(=O)O)[C@@H](C)O)NC(=O)[C@H](CC(N)=O)NC(=O)[C@H]([C@@H](C)O)NC(=O)[C@H](CC(C)C)NC(=O)[C@H](CC(=O)O)NC1=O` (Ac-RRFFGI[S5]DLTN[S5]LKTEEGN-OH; staple (Z) 7-12): the Kdiss in experiment [2] worked out at 1.73 ×10⁻¹ /s. In addition, the Ka in experiment [3] is 6.65 ×10³ /M.s. Further, the equilibrium dissociation constant (Kd) at GTPase KRas was 26.1 µM.
The like results for `CC[C@H](C)[C@H](NC(=O)CNC(=O)[C@H](Cc1ccccc1)NC(=O)[C@H](Cc1ccccc1)NC(=O)[C@H](CCCNC(=N)N)NC(=O)[C@H](CCCNC(=N)N)NC(C)=O)C(=O)N[C@@]1(C)CCC/C=C\CCC[C@@](C)(C(=O)N[C@@H](CC(C)C)C(=O)N[C@@H](CCCCN)C(=O)N[C@H](C(=O)N[C@@H](CCC(=O)O)C(=O)N[C@@H](CCC(=O)O)C(=O)NCC(=O)N[C@@H](CC(N)=O)C(=O)O)[C@@H](C)O)NC(=O)[C@H](CC(N)=O)NC(=O)[C@H]([C@@H](C)O)NC(=O)[C@H](CC(=O)O)NC(=O)[C@H](CC(C)C)NC1=O` (Ac-RRFFGI[S5]LDTN[S5]LKTEEGN-OH; staple (Z) 7-12) were, in that order, 1.19 ×10⁻² /s, 3.73 ×10³ /M.s and 3.2 µM.
The like results for `CC[C@H](C)[C@H](NC(=O)CNC(=O)[C@H](Cc1ccccc1)NC(=O)[C@H](Cc1ccccc1)NC(=O)[C@H](CCCNC(=N)N)NC(=O)[C@H](CCCNC(=N)N)NC(C)=O)C(=O)N[C@@]1(C)CCC/C=C\CCC[C@@](C)(C(=O)N[C@@H](CC(C)C)C(=O)N[C@@H](CCCCN)C(=O)N[C@H](C(=O)N[C@@H](CCC(=O)O)C(=O)N[C@@H](CCC(=O)O)C(=O)NCC(=O)N[C@@H](CC(N)=O)C(=O)O)[C@@H](C)O)NC(=O)[C@H](CC(N)=O)NC(=O)[C@H](CC(=O)O)NC(=O)[C@H]([C@@H](C)O)NC(=O)[C@H](CC(C)C)NC1=O` (Ac-RRFFGI[S5]LTDN[S5]LKTEEGN-OH; staple (Z) 7-12) were, in that order, 4.07 ×10⁻² /s, 4.62 ×10³ /M.s and 8.81 µM.
